Data on 1 compound can be found in patent EP1137438B1, “FORMULATION WITH AN IMPROVED THERAPEUTIC RANGE, CONTAINING NUCLEOTIDE SYNTHESIS INHIBITORS” (Aventis Pharma Deutschland GmbH, priority 1998, dated 2000).

A short description of series [1]: Blood levels and duration of action of Verbindung 1 after later administration of Colestyramin. It is filed as in vivo. To be noted: after later administration of Colestyramin (interruption of enterohepatic circulation); result in words. The source says:
Die erfindungsgemäße Zubereitung kann auch Kompositionen oder Kombinationspackungen umfassen, in denen die Bestandteile nebeneinander gestellt sind und deshalb gleichzeitig, getrennt oder zeitlich abgestuft an ein und denselben menschlichen oder tierischen Körper anwendbar sind. Bevorzugt ist die zeitlich abgestufte Applikation von der Verbindung der Formel I und/oder II vor der Applikation der Verbindung, die die enterohepatische Zirkulation der Verbindung der Formel I oder II im wesentlichen verhindert. Hierzu wird beispielsweise zuerst N-(4-Trifluormethylphenyl)-2-cyan-3-hydroxy-crotonsäureamid (im folgenden als Verbindung 1 bezeichnet) appliziert. Colestyramin, das die enterohepatische Zirkulation der Verbindung 1 im wesentlichen verhindert, wird zeitlich versetzt, also z.B. 2 Stunden oder 4 Stunden nach der Gabe der Verbindung 1, appliziert. Durch diese zeitlich versetzte Gabe der Verbindung 1 und Colestyramin wird die Verbindung 1 zunächst ungehindert aus dem Verdauungstrakt resorbiert.
Nach der Gabe von Colestyramin, welches systemisch nicht resorbiert wird, wird die über die Galle ausgeschiedene Verbindung 1 an Colestyramin gebunden und kann daher nicht wieder reabsorbiert werden; dadurch wird eine Unterbrechung der enterohepatischen Zirkulation bewirkt.

The subject of series [2] is Adjuvans induzierte Arthritis. The series is described as follows: Adjuvant-induced arthritis, modification after Perper (paw volume, arthritis index on day 18). It is filed as in vivo, männliche Ratten eines Lewis-Stammes. The procedure:
Adjuvans induzierte Arthritis, Modifikation nach Perper (Proc. Soc. exp. Biol. Med. 137, 506 (1971)) Als Versuchstiere dienten männliche Ratten eines Lewis-Stammes (Moellegard, Dänemark) mit einem Körpergewicht von 160 bis 210 g. Die Tiere erhielten am 1.
Tag eine subkutane Injektion in die Schwanzwurzel mit kompletten Freund'schen Adjuvans, enthaltend eine Mycobacterium butyricum Suspension in schwerem Paraffin Öl (Difco; 6 mg/kg in Paraffin Öl; Merck). Die Verbindungen N-(4-Trifluormethylphenyl)-2-cyan-3-hydroxy-crotonsäureamid und Colestyramin wurden in Carboxymethylcellulose (1 % in Wasser) suspendiert und oral verabreicht. Die Verbindungen wurden einmal täglich vom 1. bis zum 17. Versuchstag appliziert; dann erfolgte die Bestimmung des Pfotenvolumens und Arthritis-Index am 18. Tag.
Die Schwere der Erkrankung wurde durch Messung des Pfotenvolumens beider Hinterpfoten bestimmt. Die Messung erfolgte durch die Wasserverdrängungsmethode mit einem Plethysmometer 2060 (Rhema-Labortechnik, Hofheim, Deutschland). Ferner erfolgte die Bestimmung des Arthritis Index am 18. Tag nach der Injektion.
Bestimmung des Arthritis Index: 1. Ohren 0,5 Punkte für jedes Ohr an dem eine Rötung auftritt und Knoten gebildet werden 2. Nase 1 Punkt für Bindegewebsschwellung 3. Schwanz 1 Punkt für das Auftauchen von Knoten 4. Vorderpfoten 0,5 Punkte für jede Pfote an der wenigsten eine Entzündung an einem Gelenk auftritt 5. Hinterpfoten 1 Punkt für leichte Entzündung (Schwellung) 2 Punkte für eine mittelstarke Entzündung 3 Punkte für eine massive Entzündungsreaktion
Tiere einer Kontrollgruppe "Arthritis Kontrolle" erhielten am 1. Tag eine subkutane Injektion in die Schwanzwurzel mit kompletten Freund'schen Adjuvans und erhielten aber nur das Lösungsmittel (1 % Carboxymethylcellulose in Wasser). Pro Dosierung und in der Kontrollgruppe wurden jeweils 6 Tiere verwendet. Als weitere Kontrollgruppe "gesunde Kontrolle" wurden unbehandelte Tiere eingesetzt. Als Wirkungskriterium diente die Herabsetzung der Pfotenvolumenzunahme und die Abnahme des Arthritis Index gegenüber der unbehandelten Kontrollgruppe und das Gewicht der Tiere jeweils in Prozent und bezogen auf die Arthritis Kontrolle.
In der folgenden Tabelle wird N-(4-Trifluormethylphenyl)-2-cyan-3-hydroxycrotonsäureamid als Verbindung 1 bezeichnet. Colestyramin wurde 4 Stunden später als Verbindung 1 appliziert. Tabelle 1 zeigt die erhaltenen Ergebnisse. Tabelle 1

The mark [3] stands for this setting: Tabelle 1, Verbindung 1 25 mg/kg oral (combination: + 1000 mg/kg Colestyramin 4 h later), once daily day 1-17, read day 18.
[4] abbreviates: Tabelle 1, Verbindung 1 2,5 mg/kg oral (combination: + 1000 mg/kg Colestyramin 4 h later), once daily day 1-17, read day 18.
Setting [5] is: Tabelle 1, Verbindung 1 7,5 mg/kg oral (combination: + 1000 mg/kg Colestyramin 4 h later), once daily day 1-17, read day 18.
[6] abbreviates: Tabelle 2 (Beispiel 2), Colestyramin 1000, Verbindung 1 25, combination 25 + 1000 mg/kg (Colestyramin 4 h later).
Setting [7] is: Tabelle 3 (Beispiel 3), Colestyramin 1000, Verbindung 1 25, combination 25 + 1000 mg/kg (Colestyramin 4 h later).

Regarding `CC(O)=C(C#N)C(=O)Nc1ccc(C(F)(F)F)cc1` [Verbindung 1, N-(4-Trifluormethylphenyl)-2-cyan-3-hydroxy-crotonsäureamid], the “Wirkungsdauer und Blutspiegel der Verbindung 1” value in series [1] is recorded as “drastisch reduziert”. Moreover, the “Arthritis Index (%)” value in series [2] (setting [3]) is given as -100%; in series [2] (setting [4]) it was -77%; in series [2] (setting [5]) it was -92%; in series [2] (setting [6]) it was -100%; in series [2] (setting [7]), -100%. Further, the “Pfotenvolumen (%)” value is -92% in series [2] (setting [3]); -63% in series [2] (setting [4]); -83% in series [2] (setting [5]); -92% in series [2] (setting [6]); -110% in series [2] (setting [7]). Further, the “Wirksamkeit im pathologischen Tiermodell (Adjuvans Arthritis)” value in series [2] (about 2,5 mg/kg/Tag Verbindung 1, effect of added Colestyramin, result in words) is on record as “nicht vermindert”.
